Measurements: US20250177346A1 (priority 2022, published 2025)

Columns and labels:
C57BL/6 mouse model [1] = settings: in vivo
[2] = tested on: hair dermal papilla cells (HDPCs) derived from human hair follicles; format: cell-based
C57BL/6 mouse model [3] = settings: in vivo; remark: listed apart in the source
[4] = tested on: human hair dermal papilla cells; format: cell-based
human hair follicles [5] = format: cell-based
[6] = tested on: outer root sheath cells (ORSs) derived from human hair follicles; format: cell-based
[7] = tested on: outer root sheath cells derived from human hair follicles; format: cell-based
[8] = tested on: outer root sheath cells derived from human hair follicles; format: cell-based; remark: listed apart in the source
[9] = tested on: hair dermal papilla cells derived from human hair follicles; format: cell-based
human hair follicles [10] = format: cell-based; remark: listed apart in the source

Nc1cc(N2CCCCC2)nc(N)[n+]1[O-] [minoxidil, 6-piperidin-1-ylpyrimidine-2,4-diamine 3-oxide]
hair growth / area of hair growth in the anagen phase (C57BL/6 mouse model [1]): hair growth was shown

O=C(NCc1ccc2c(c1)OCO2)c1c(Cl)cccc1Cl [Alda-1, N-(1,3-benzodioxol-5-ylmethyl)-2,6-dichlorobenzamide]
cell viability of hair dermal papilla cells [2]: significantly increased
proliferation of hair dermal papilla cells compared with minoxidil [2]: equivalent to or greater than those of minoxidil
anagen induction score (C57BL/6 mouse model [3]): increased compared to the control
formation of hair follicles (hematoxylin and eosin staining) (C57BL/6 mouse model [3]): promoted
percentage of areas where hair in the anagen phase grew (C57BL/6 mouse model [3]): significantly increased
skin thickness (C57BL/6 mouse model [3]): increased compared to the control
protein level of basic fibroblast growth factor (bFGF) [4]: increased
protein level of insulin-like growth factor 1 (IGF-1) [4]: increased
protein level of keratinocyte growth factor (FGF-7) [4]: increased
protein level of platelet-derived growth factor (PDF) [4]: increased
elongation of hair in human hair follicles (human hair follicles [5]): promoted the elongation of hair
growth of hair in hair follicles compared with minoxidil (human hair follicles [5]): higher levels compared to minoxidil
cell viability of outer root sheath cells [6]: significantly increased
proliferation of outer root sheath cells compared with minoxidil [6]: equivalent to or greater than those of minoxidil
hair growth / area of hair growth in the anagen phase (C57BL/6 mouse model [1]): hair growth was shown
oxidative stress in outer root sheath cells (DCFDA level, flow cytometry) [7]: significantly reduced
ATP production of mitochondria, increase [8]: ~10 fold
basal respiration rate [8]: remarkably increased
maximal respiration rate [8]: remarkably increased
oxygen consumption efficiency of outer root sheath cells [8]: increased
fluorescence level indicating DCFDA (oxidative stress) [9]: significantly reduced
Ki-67 positive cell effect compared with minoxidil (human hair follicles [10]): even better than that of minoxidil
level of Ki-67 positive cells in hair follicles (human hair follicles [10]): increased
